This test deals with T1, human DP2 (Homo sapiens, UniProt Q9Y5Y4).
T1 construct: expressed in transfected cells; membranes prepared
T1 sequence (Q9Y5Y4 1-395): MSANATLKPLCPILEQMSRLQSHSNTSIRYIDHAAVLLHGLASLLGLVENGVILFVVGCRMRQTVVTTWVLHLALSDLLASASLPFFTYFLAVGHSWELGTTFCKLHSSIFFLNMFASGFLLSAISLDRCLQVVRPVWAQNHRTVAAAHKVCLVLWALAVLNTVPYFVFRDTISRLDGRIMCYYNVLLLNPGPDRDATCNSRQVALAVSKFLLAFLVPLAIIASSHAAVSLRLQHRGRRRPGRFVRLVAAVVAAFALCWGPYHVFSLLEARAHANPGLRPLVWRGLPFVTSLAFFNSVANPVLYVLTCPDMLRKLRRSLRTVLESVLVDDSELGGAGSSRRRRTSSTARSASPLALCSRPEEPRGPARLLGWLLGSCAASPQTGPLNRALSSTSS
In words: DP-2 binding inhibition assay (3H-PGD2, membranes of DP2-expressing K562 cells). Conditions: 4% HSA, read-out: EC50 (nM) 4% HSA. The procedure, abridged:
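Displacement of 3H-PGD2 was measured by filtration and scintillation counting after 60 min at room temperature, using membranes of DP2-transfected K562 cells in 0.1% BSA, 1% HSA or 4% HSA.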

The values below come from patent publication US8785445B2 (Array BioPharma Inc., priority 2008, dated 2014).

As to `O=C(Nc1nc(-c2ccc(F)cc2F)cs1)c1ccc(Oc2cc3c(cc2Cl)C(C(=O)O)CCO3)cc1` (stereo not shown) [Example 155, 6-chloro-7-(4-(4-(2,4-difluorophenyl)thiazol-2-ylcarbamoyl)phenoxy)chroman-4-carboxylic acid], the EC50 amounted to 68.9 nM.

As for `O=C(Nc1cncc(-c2cccc(Cl)c2)c1)c1ccc(Oc2cc3c(cc2Cl)C(C(=O)O)CCO3)cc1` (stereo not shown) [Example 127, 6-Chloro-7-(4-(5-(3-chlorophenyl)pyridin-3-ylcarbamoyl)phenoxy)chroman-4-carboxylic acid], the EC50 came to 690 nM.

Consider `O=C(Nc1cccc(-c2ccc(Cl)c(C(F)(F)F)c2)n1)c1ccc(Oc2cc3c(cc2Cl)C(C(=O)O)CCO3)cc1` (stereo not shown) [Example 53, 6-Chloro-7-(4-(6-(4-chloro-3-(trifluoromethyl)phenyl)pyridin-2-ylcarbamoyl)phenoxy)chroman-4-carboxylic acid], for which the EC50 came to 40.9 nM.

Consider `COc1ncc(CCNC(=O)c2ccc(Oc3cc4c(cc3Cl)C(C(=O)O)CCO4)cc2)c(OC)n1` (stereo not shown) [Example 220, 6-chloro-7-(4-(2-(2,4-dimethoxypyrimidin-5-yl)ethylcarbamoyl)phenoxy) chroman-4-carboxylic acid], for which the EC50 turned out to be 379 nM.

For the molecule `O=C(Nc1cccc(C(F)(F)F)n1)c1ccc(Oc2cc3c(cc2Cl)C(C(=O)O)CCO3)cc1` (stereo not shown) [Example 28, 6-Chloro-7-(4-(6-(trifluoromethyl)pyridin-2-ylcarbamoyl)phenoxy)chroman-4-carboxylic acid], the EC50 was determined as 187 nM.

For the molecule `N#Cc1cc2c(cc1Oc1ccc(C(=O)Nc3cccc(-c4ccc(Cl)cc4Cl)n3)cc1)OCCC2C(=O)O` (stereo not shown) [Example 49, 6-Cyano-7-(4-(6-(2,4-dichlorophenyl)pyridin-2-ylcarbamoyl)phenoxy)chroman-4-carboxylic acid], the EC50 stood at 87.3 nM.

`N#Cc1cc2c(cc1Oc1ccc(C(=O)Nc3cccc(-c4ccc(C(F)(F)F)cc4)n3)cc1)OCCC2C(=O)O` (stereo not shown) [Example 42, 6-Cyano-7-(4-(6-(4-(trifluoromethyl)phenyl)pyridin-2-ylcarbamoyl)-phenoxy)chroman-4-carboxylic acid]: the EC50 was 36.1 nM.

Take `O=C(Nc1nc2cc(Cl)ccc2o1)c1ccc(Oc2cc3c(cc2Cl)C(C(=O)O)CCO3)cc1` (stereo not shown) [Example 208, 6-chloro-7-(4-(5-chlorobenzo[d]oxazol-2-ylcarbamoyl)phenoxy) chroman-4-carboxylic acid]: the EC50 was 736 nM.

Regarding `O=C(Nc1cccc(-c2ccc(Cl)cc2)n1)c1ccc(Oc2cc3c(cc2Cl)[C@H](C(=O)O)CCO3)cc1` (single isomer, unassigned; enantiomer 2) [Example 142, 6-Chloro-7-(4-(6-(4-chlorophenyl)pyridin-2-ylcarbamoyl)phenoxy)chroman-4-carboxylic acid, Enantiomer 2], the EC50 worked out at 21.7 nM.

As to `Cc1cc2ccccc2nc1NC(=O)c1ccc(Oc2cc3c(cc2Cl)C(C(=O)O)CCO3)cc1` (stereo not shown) [Example 26, 6-Chloro-7-(4-(3-methylquinolin-2-ylcarbamoyl)phenoxy)chroman-4-carboxylic acid], the EC50 was 1910 nM.

What is called EC50 is the concentration that produces a half-maximal response.
